How the values were obtained:
[1] = test system: A3/KAW cells; assay: CellTiter-Glo cell viability, A3/KAW; type: cell-based; details: DLBCL
[2] = biological target: mutant STAT3 (Homo sapiens, UniProt P40763, D661Y); assay: STAT3 MSD assay, mutant STAT3 cell lines; type: cell-based; details: read-out: DC50, mutant STAT3; mutant STAT3 heme cell lines, FIG. 9
Procedure: 100 nl of compounds were added into the intermediate plate with Echo (Labcyte 550) from source plate containing a 3-fold serial dilution from top concentration of 1 mM. Cells were seeded into 96-well plates (4×10^4 cells/well/100 ul media), mixed well, and incubated for 24 hours. The media was aspirated from the cultures and 60 μL pre-chilled PIPA lysis buffer (Boston BioProducts BP-115D) with protease/phosphatase inhibitor (Roche 05892791001/Roche 04906837001) was added into the well to lyze the cells for 20 minutes at 4° C. The MSD plate (L15XA) was coated with 2 ug/ml capture antibody (ab119352) in PBS and incubated at 4° C. overnight. The next day, the plate was washed three times with TBST (CST #99975), 150 μL/well. MSD plates were blocked with 150 μL blocking buffer per well and shaken for 1 hr at RT and 600 rpm. The blocking buffer was 3% Blocker A (MSD, R93BA-4) in TBST. The MSD plate was washed three times with 150 μL/well of TBST and 70 μL cell lysate was added into the well and shaken for 1 hour at RT and 600 rpm. […] The MSD plate washed three times with 150 μL/well of TBST and added 150 μL/well of 2×MSD reading buffer diluted from 4× (MSD, R92TC-2) with water. Lastly the MSD instrument was read.

[3] = biological target: T1, mutant STAT3 (STAT D661Y) (Homo sapiens, UniProt P40763, D661Y); assay: degradation of mutant STAT3 in HDLM-2 cell lines, dose response; type: cell-based; details: dose response curve
T1 construct: endogenous in cells; host or cells: HDLM-2

[4] = biological target: T2, STAT3 (Homo sapiens, UniProt P40763); assay: Quantitation of STAT3 degradation in A549 cells by Western blot; type: cell-based; parameters: expressed in transfected cells; host or cells: A549; details: read-out: A549 DC50, 24 hours, tested up to 30 μM or 10 μM
How it was run: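 A549 cells treated 24 h at 37° C with compound at 30, 10, 3, 1, 0.3 μM or DMSO; RIPA lysates analysed by SDS-PAGE/Western blot for total STAT3, β-actin as loading control, LI-COR fluorescence read-out. DC50 derived by sigmoidal fit of dose-dependent degradation.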

[5] = test system: SU-DHL-1 tumor cells; assay: Xenograph tumor study, SU-DHL-1; type: in vivo, NOD SCID mice; details: SUDHL-1 xenograph, 2.5-30 mg/kg, 2 days on/5 days off
Procedure: Animals: 50 6-8 week old female NOD SCID mice weighing 18 to 20 grams. 25 mice were used in each study.
Method for Tumor Inoculation: Each mouse was inoculated subcutaneously with SU-DHL-1 tumor cells (1×107+Matrigel) or SUP-M2 tumor cells (5×106+Matrigel) in 0.1 ml of RPMI1640 medium supplemented with 10% FBS, 100 U/ml penicillin and […] streptomycin for tumor development. Mice were then assigned to groups such that the mean tumor volume was the same for each treatment group and time point. […] Vehicle was 25% HP-β-CD in water adjusted to pH 7.4.
Measurement Parameters: Study animals were monitored not only for tumor growth but also behavior such as mobility, food and water consumption (by cage side checking only), body weight (BW), eye/hair matting and any other abnormal effect. Any mortality and/or abnormal clinical signs was recorded. Sponsor was notified immediately if abnormal clinical signs, or if tolerability issues were observed. Body weights of all animals were measured and recorded twice per week. The measurement of tumor size was conducted twice weekly with a caliper and recorded. The tumor volume (mm3) was estimated using the formula: TV=a×b2/2, where “a” and “b” are long and short diameters of a tumor, respectively.

[6] = biological target: T2, STAT3; assay: STAT3 HiBiT degradation assay in transfected A549 cells; type: cell-based; parameters: expressed in transfected cells; host or cells: A549; details: A549, 24 h; read-out: STAT3 HiBiT A549 degradation 24 h: Average external-Abs DC50
How it was run: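 Degradation read as HiBiT-tagged STAT3 luminescence (Nano-Glo lytic reagent, 10 min, room temperature) following 24 h compound treatment of transfected A549 cells at 3-fold, 10 points. Percent remaining signal computed against controls and fitted with a four-parameter logistic; DC50 reported as letter bins (A <0.01 to D >1.0 µM).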

[7] = test system: ternary complex; assay: AlphaLISA assay of ternary complex formation (FIG. 2A); type: binding
[8] = biological target: T2, STAT3; assay: STAT3 ubiquitination in A549 lysates (FIG. 2B); type: cell-based; parameters: expressed in transfected cells; host or cells: A549
[9] = test system: STAT3-degrader-E3 ligase ternary complex; assay: AlphaLISA assays, ternary complex formation and STAT3 ubiquitination; type: biochemical; details: FIG. 2
[10] = biological target: T2, STAT3; assay: Fluorescence polarization assay, STAT3 binding; details: FIG. 1
[11] = test system: E3 ligase; assay: Fluorescence polarization assay, E3 ligase binding; details: FIG. 1

T2 sequence (P40763 whole entry): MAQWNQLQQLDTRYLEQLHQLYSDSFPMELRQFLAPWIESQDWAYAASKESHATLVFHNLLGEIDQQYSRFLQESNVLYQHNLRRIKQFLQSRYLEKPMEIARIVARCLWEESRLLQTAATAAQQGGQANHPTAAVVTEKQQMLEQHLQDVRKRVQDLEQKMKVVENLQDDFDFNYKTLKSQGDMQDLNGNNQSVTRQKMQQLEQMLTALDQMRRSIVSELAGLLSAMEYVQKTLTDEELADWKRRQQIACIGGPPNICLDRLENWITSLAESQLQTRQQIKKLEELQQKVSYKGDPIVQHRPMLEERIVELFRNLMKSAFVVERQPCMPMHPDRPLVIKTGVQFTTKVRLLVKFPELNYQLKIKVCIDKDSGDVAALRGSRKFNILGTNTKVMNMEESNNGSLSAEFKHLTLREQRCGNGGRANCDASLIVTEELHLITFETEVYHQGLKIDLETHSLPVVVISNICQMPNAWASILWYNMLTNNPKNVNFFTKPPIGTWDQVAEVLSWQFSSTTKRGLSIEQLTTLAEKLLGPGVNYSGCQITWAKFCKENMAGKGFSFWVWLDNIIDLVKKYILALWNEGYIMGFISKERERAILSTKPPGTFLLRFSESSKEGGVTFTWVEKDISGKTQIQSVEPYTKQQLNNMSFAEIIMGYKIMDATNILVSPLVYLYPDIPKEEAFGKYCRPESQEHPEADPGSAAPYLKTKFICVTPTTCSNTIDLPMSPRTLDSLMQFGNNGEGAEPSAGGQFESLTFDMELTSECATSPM
Sequence of mutant STAT3 (P40763 2-770 D661Y): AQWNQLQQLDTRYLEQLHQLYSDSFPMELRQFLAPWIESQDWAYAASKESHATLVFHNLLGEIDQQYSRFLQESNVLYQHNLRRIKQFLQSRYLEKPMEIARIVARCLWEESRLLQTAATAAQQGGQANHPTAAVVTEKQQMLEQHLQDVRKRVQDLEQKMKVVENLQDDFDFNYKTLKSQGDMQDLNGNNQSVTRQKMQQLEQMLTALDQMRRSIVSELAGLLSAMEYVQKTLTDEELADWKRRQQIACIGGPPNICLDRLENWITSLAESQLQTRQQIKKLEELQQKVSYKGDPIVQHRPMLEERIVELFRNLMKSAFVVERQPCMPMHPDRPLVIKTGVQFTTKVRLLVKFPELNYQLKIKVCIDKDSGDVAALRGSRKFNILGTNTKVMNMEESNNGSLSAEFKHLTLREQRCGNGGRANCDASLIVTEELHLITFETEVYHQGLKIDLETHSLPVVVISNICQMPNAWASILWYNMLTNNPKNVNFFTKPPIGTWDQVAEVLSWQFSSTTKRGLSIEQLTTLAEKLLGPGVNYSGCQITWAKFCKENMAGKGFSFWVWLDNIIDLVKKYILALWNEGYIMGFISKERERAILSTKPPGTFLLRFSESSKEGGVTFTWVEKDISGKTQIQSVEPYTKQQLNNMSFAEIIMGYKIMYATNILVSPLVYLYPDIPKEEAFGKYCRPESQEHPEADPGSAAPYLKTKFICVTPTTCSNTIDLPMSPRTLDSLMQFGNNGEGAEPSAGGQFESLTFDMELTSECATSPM
T1 sequence (P40763 whole entry D661Y): as the sequence (P40763 whole entry) above, with D661Y counted along it

NC(=O)CC[C@H](NC(=O)[C@@H]1CC[C@@H]2CCN(C(=O)CCCCCC#Cc3cccc4c3CN(C3CCC(=O)NC3=O)C4=O)C[C@H](NC(=O)c3cc4cc(C(=O)P(=O)(O)O)ccc4[nH]3)C(=O)N21)C(=O)NC(c1ccccc1)c1ccccc1 (stereo partly drawn) [Compound I-111, diammonium 2-[[(5S,8S,10aR)-8-[[(1S)-3-carbamoyl-1-(diphenylmethylcarbamoyl)propyl]carbamoyl]-3-[8-[2-(2,6-dioxopiperidin-3-yl)-1-oxo-3H-isoindol-4-yl]oct-7-ynoyl]-6-oxo-octahydropyrrolo[1,2-a][1,5]diazocin-5-yl]carbamoyl]-1H-indole-5-carbonylphosphonate]
IC50 ([1]; 96 h, Day 4, read-out: CTG, IC50 μM, Day 4): 1.9 µM | CTG (% Max inh), Day 4 [1]: (50-55) % | DC50 [2]: 68 nM | degradation of mutant STAT3 (STAT D661Y) [3]: degrading mutant STAT3 | DC50 [4]: < 30000 nM

CC(=O)N1CC[C@H]2CC[C@@H](C(=O)N[C@@H](CCC(N)=O)COc3cccc(CCCC(=O)N[C@H](C(=O)N4C[C@H](O)C[C@H]4C(=O)N[C@@H](C)c4ccc(-c5scnc5C)cc4)C(C)(C)C)c3Cl)N2C(=O)[C@@H](NC(=O)c2cc3cc(C(=O)P(=O)(O)O)ccc3[nH]2)C1 [Compound I-241, diammonium 2-[[(5S,8S,10aR)-3-acetyl-8-[[(2S)-4-carbamoyl-1-[2-chloro-3-(3-[[(2S)-1-[(2S,4R)-4-hydroxy-2-[[(1S)-1-[4-(4-methyl-1,3-thiazol-5-yl)phenyl]ethyl]carbamoyl]pyrrolidin-1-yl]-3,3-dimethyl-1-oxobutan-2-yl]carbamoyl]propyl)henoxy]butan-2-yl]carbamoyl]-6-oxo-octahydropyrrolo[1,2-a][1,5]diazocin-5-yl]carbamoyl]-1H-indole-5-carbonylphosphonate]
tumor volume, 5 days ([5]; IV): A (A<500 mm^3) | tumor volume, 10 days ([5]; IV): A (A<500 mm^3) | tumor volume, 15 days ([5]; IV): A (A<500 mm^3) | tumor volume, 20 days ([5]; IV): A (A<500 mm^3) | DC50 [6]: < 10 nM

Cc1ncsc1-c1ccc([C@H](C)NC(=O)[C@@H]2C[C@@H](O)CN2C(=O)[C@@H](NC(=O)CCCc2cccc(OC[C@H](CCC(N)=O)NC(=O)[C@@H]3Cc4cccc5c4N3C(=O)[C@@H](NC(=O)c3cc4cc(C(=O)P(=O)(O)O)ccc4[nH]3)CC5)c2F)C(C)(C)C)cc1 [Compound I-261, 2-[[(2S,11S)-2-[[(2S)-4-carbamoyl-1-[2-fluoro-3-(3-[[(2S)-1-[(2S,4R)-4-hydroxy-2-[[(1S)-1-[4-(4-methyl-1,3-thiazol-5-yl)phenyl]ethyl]carbamoyl]pyrrolidin-1-yl]-3,3-dimethyl-1-oxobutan-2-yl]carbamoyl]propyl)phenoxy]butan-2-yl]carbamoyl]-12-oxo-1-azatricyclo[6.4.1.0^[4,13]]trideca-4(13),5,7-trien-11-yl]carbamoyl]-1H-indole-5-carbonylphosphonic acid]
tumor volume, 5 days ([5]; IP): A (A<500 mm^3) | tumor volume, 10 days ([5]; IP): A (A<500 mm^3) | tumor volume, 15 days ([5]; IP): A (A<500 mm^3) | tumor volume, 20 days ([5]; IP): A (A<500 mm^3) | DC50 [6]: < 10 nM

C/C(=C\C(=O)N[C@H]1CCc2cccc3c2N(C1=O)[C@H](C(=O)N[C@@H](CCC(N)=O)[C@@H](C)OCc1ccc(CCCCC(=O)N[C@H](C(=O)N2C[C@H](O)C[C@H]2C(=O)NCc2ccc(-c4scnc4C)cc2)C(C)(C)C)cc1)C3)c1ccc(C(F)(F)P(=O)(O)O)cc1 [Compound I-1, [4-[(1E)-1-[[(2S,11S)-2-[[(3S,4R)-1-carbamoyl-4-[[4-(4-[[(2S)-1-[(2S,4R)-4-hydroxy-2-([[4-(4-methyl-1,3-thiazol-5-yl)phenyl]methyl]carbamoyl)pyrrolidin-1-yl]-3,3-dimethyl-1-oxobutan-2-yl]carbamoyl]butyl)phenyl]methoxy]pentan-3-yl]carbamoyl]-12-oxo-1-azatricyclo[6.4.1.0^[4,13]]trideca-4(13),5,7-trien-11-yl]carbamoyl]prop-1-en-2-yl]phenyl]difluoromethylphosphonic acid]
ternary complex formation [7]: efficient ternary complex formation | STAT3 ubiquitination [8]: STAT3 ubiquitination | STAT3 ubiquitination [9]: promotes | formation of the STAT3-degrader-E3 ligase ternary complex [9]: promotes the formation of the STAT3-degrader-E3 ligase ternary complex | binding to STAT3 [10]: binds | binding to E3 ligase [11]: binds | DC50 [4]: < 30000 nM

From patent publication US12077555B2, “STAT degraders and uses thereof” (Kymera Therapeutics, Inc., priority 2019, dated 2024)
